The results in this text go back to patent publication US20250171447A1, “ADENOSINE RECEPTOR ANTAGONISTS, PHARMACEUTICAL COMPOSITIONS AND THEIR USE THEREOF” (Merck Sharp & Dohme LLC, priority 2022, published 2025).

One may read the IC50 as the concentration at which inhibition is half-maximal. Low readings indicate greater potency, high ones weaker potency.

Molecules are shown by their SMILES.

The target of the assay is human A2A adenosine receptor (Homo sapiens (Human), UniProt P29274). As to the kind of experiment: A2A receptor affinity binding assay (radioligand filtration binding or SPA, [3H]SCH58261). The note with it: membranes from HEK293 or CHO cells expressing human A2A; Method (A) filtration or Method (B) SPA.
Sequence of human A2A adenosine receptor (P29274 whole entry): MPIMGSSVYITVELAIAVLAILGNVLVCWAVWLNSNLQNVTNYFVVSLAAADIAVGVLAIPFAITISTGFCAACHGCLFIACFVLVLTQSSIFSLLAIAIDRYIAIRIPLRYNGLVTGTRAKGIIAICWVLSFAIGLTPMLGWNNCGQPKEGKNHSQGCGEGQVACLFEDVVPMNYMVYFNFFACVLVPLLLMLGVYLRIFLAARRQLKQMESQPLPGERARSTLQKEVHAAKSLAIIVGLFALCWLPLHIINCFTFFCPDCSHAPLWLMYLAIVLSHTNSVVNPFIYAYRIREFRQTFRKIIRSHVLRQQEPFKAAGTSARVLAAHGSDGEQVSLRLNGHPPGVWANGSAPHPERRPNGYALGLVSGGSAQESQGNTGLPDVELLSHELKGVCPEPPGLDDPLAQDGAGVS
Molecule `COc1cc(F)cc2c1nc(N)n1nc([C@H]3C[C@@H](c4ccccc4C(C)(C)O)C3)nc21` (single isomer, unassigned) [Ex-52] gave an IC50 of 3 nM. In other words, the single-digit nanomolar range.

`COc1cccc2c1nc(N)n1nc([C@H]3C[C@@H](c4ccc(C(N)C(F)(F)F)cc4)C3)nc21` (single isomer, unassigned) [Ex-75, 2-{cis-3-[4-(1-amino-2,2,2-trifluoroethyl)phenyl]cyclobutyl}-7-methoxy[1,2,4]triazolo[1,5-c]quinazolin-5-amine] yielded an IC50 of 0.3 nM.

With `COc1cccc2c1nc(N)n1nc([C@H]3C[C@@H](c4ccc(C(N)C(F)(F)F)cc4)C3)nc21` (single isomer, unassigned) [Ex-76, 2-{cis-3-[4-(1-amino-2,2,2-trifluoroethyl)phenyl]cyclobutyl}-7-methoxy[1,2,4]triazolo[1,5-c]quinazolin-5-amine], the IC50 was found to be 0.5 nM.

The molecule `COc1cccc2c1nc(N)n1nc([C@H]3C[C@@H](c4ncc(C(C)(C)N)cc4Cl)C3)nc21` (single isomer, unassigned) [Ex-88, 2-{cis-3-[5-(2-aminopropan-2-yl)-3-chloropyridin-2-yl]cyclobutyl}-7-methoxy[1,2,4]triazolo[1,5-c]quinazolin-5-amine] gave an IC50 of 6.6 nM. This IC50 lies about 13-fold higher than the previous one.

`COc1cccc2c1nc(N)n1nc([C@H]3C[C@H](c4ccc([C@@H](N)C(F)(F)F)cn4)C3)nc21` (single isomer, unassigned) [Ex-93] yielded an IC50 of 2.3 nM.

Molecule `COc1cccc2c1nc(N)n1nc([C@H]3C[C@@H](c4ccc([C@@H](N)C(F)(F)F)cn4)C3)nc21` (single isomer, unassigned) [Ex-94] displayed an IC50 of 3.8 nM.

On to `COc1cccc2c1nc(N)n1nc([C@H]3C[C@H](c4ccc([C@H](N)C(F)F)cn4)C3)nc21` (single isomer, unassigned) [Ex-104], for which the IC50 stood at 2.6 nM.

`COc1cccc2c1nc(N)n1nc([C@H]3C[C@@H](c4ccc([C@H](N)C(F)F)cn4)C3)nc21` (single isomer, unassigned) [Ex-105] had an IC50 of 2.7 nM.

For `COc1cccc2c1nc(N)n1nc([C@H]3C[C@H](c4ccc([C@@H](N)C(F)F)cn4)C3)nc21` (single isomer, unassigned) [Ex-106], the half-maximal inhibitory concentration (IC50) was 4.1 nM. Compared with the last molecule, the IC50 is about 1.5-fold higher.

Turning to `COc1cccc2c1nc(N)n1nc([C@H]3C[C@@H](c4ccc([C@@H](N)C(F)F)cn4)C3)nc21` (single isomer, unassigned) [Ex-107], the half-maximal inhibitory concentration (IC50) came out at 8.2 nM.

`COc1cccc2c1nc(N)n1nc([C@H]3C[C@H](c4ncc5c(n4)CNC5)C3)nc21` (single isomer, unassigned) [Ex-108, 2-((trans)-3-(6,7-dihydro-5H-pyrrolo[3,4-d]pyrimidin-2-yl)cyclobutyl)-7-methoxy-[1,2,4]triazolo[1,5-c]quinazolin-5-amine]: the IC50 is 10.7 nM. This IC50 and that of the molecule before are within 1.5-fold of each other.

Molecule `COc1cccc2c1nc(N)n1nc([C@H]3C[C@@H](c4ncc5c(n4)CNC5)C3)nc21` (single isomer, unassigned) [Ex-109, 2-[(cis)-3-(6,7-dihydro-5H-pyrrolo[3,4-d]pyrimidin-2-yl)cyclobutyl]-7-methoxy[1,2,4]triazolo[1,5-c]quinazolin-5-amine] displayed an IC50 of 86.1 nM.

`COc1cccc2c1nc(N)n1nc([C@H]3C[C@H](c4ncc5c(n4)CCNC5)C3)nc21` (single isomer, unassigned) [Ex-110, 7-methoxy-2-[(trans)-3-(5,6,7,8-tetrahydropyrido[4,3-d]pyrimidin-2-yl)cyclobutyl][1,2,4]triazolo[1,5-c]quinazolin-5-amine] displayed an IC50 of 16.7 nM.

With `COc1cccc2c1nc(N)n1nc([C@H]3C[C@@H](c4ncc5c(n4)CCNC5)C3)nc21` (single isomer, unassigned) [Ex-111, 7-methoxy-2-[(cis)-3-(5,6,7,8-tetrahydropyrido[4,3-d]pyrimidin-2-yl)cyclobutyl][1,2,4]triazolo[1,5-c]quinazolin-5-amine], the IC50 came to 117 nM.

In turn, `COc1cccc2c1nc(N)n1nc([C@H]3C[C@H](c4ccc(C(C)(C)N)c(C)n4)C3)nc21` (single isomer, unassigned) [Ex-117, 2-{trans-3-[5-(2-aminopropan-2-yl)-6-methylpyridin-2-yl]cyclobutyl}-7-methoxy[1,2,4]triazolo[1,5-c]quinazolin-5-amine] showed a half-inhibitory concentration (IC50) of 8.1 nM.

With `COc1cccc2c1nc(N)n1nc([C@H]3C[C@@H](c4ccc(C(C)(C)N)c(C)n4)C3)nc21` (single isomer, unassigned) [Ex-118, 2-{cis-3-[5-(2-aminopropan-2-yl)-6-methylpyridin-2-yl]cyclobutyl}-7-methoxy[1,2,4]triazolo[1,5-c]quinazolin-5-amine], the IC50 turned out to be 4.8 nM.

In turn, `COc1cc(F)cc2c1nc(N)n1nc(C3CC3C(C)(C)O)nc21` (stereo not drawn) [Ex-28, 2-(2-(5-amino-9-fluoro-7-methoxy-[1,2,4]triazolo[1,5-c]quinazolin-2-yl)cyclopropyl)propan-2-ol] returned an IC50 of 1.5 nM.

On to `COc1cccc2c1nc(N)n1nc([C@H]3C[C@@H](c4ccc(C(C)(C)O)cc4)C3)nc21` [Ex-42, 2-(4-((1s,3s)-3-(5-amino-7-methoxy-[1,2,4]triazolo[1,5-c]quinazolin-2-yl)cyclobutyl)phenyl)propan-2-ol], for which the IC50 worked out at 0.6 nM. This IC50 lies about 2.5-fold lower than the previous one.

In turn, `COc1cc(F)cc2c1nc(N)n1nc([C@H]3C[C@@H](c4ccc(C(C)(C)O)cc4)C3)nc21` [Ex-50, 2-{4-[cis-3-(5-amino-9-fluoro-7-methoxy [1,2,4]triazolo [1,5-c]quinazolin-2-yl)cyclobutyl]phenyl} propan-2-ol] yielded an IC50 of 1 nM. Compared with the last molecule, the IC50 is about 1.7-fold higher.

For the molecule `COc1cccc2c1nc(N)n1nc([C@H]3C[C@@H](c4ccc(C(C)N)cn4)C3)nc21` (stereo partly drawn) [Ex-71, 2-{cis-3-[5-(1-aminoethyl)pyridin-2-yl]cyclobutyl}-7-methoxy[1,2,4]triazolo[1,5-c]quinazolin-5-amine], the IC50 was found to be 18.4 nM.

Molecule `COc1cccc2c1nc(N)n1nc([C@H]3C[C@H](c4ccc(C(C)N)cn4)C3)nc21` (stereo partly drawn) [Ex-72, 2-{trans-3-[5-(1-aminoethyl)pyridin-2-yl]cyclobutyl}-7-methoxy[1,2,4]triazolo[1,5-c]quinazolin-5-amine] showed an IC50 of 7.9 nM. Compared with the last molecule, the IC50 is about 2.3-fold lower.

In turn, `COc1cccc2c1nc(N)n1nc([C@H]3C[C@H](c4ccc(C(N)C(F)F)cn4)C3)nc21` (stereo partly drawn) [Ex-73, 2-{trans-3-[5-(1-amino-2,2-difluoroethyl)pyridin-2-yl]cyclobutyl}-7-methoxy[1,2,4]triazolo[1,5-c]quinazolin-5-amine] displayed an IC50 of 4.8 nM.

With `COc1cccc2c1nc(N)n1nc([C@H]3C[C@@H](c4ccc(C(N)C(F)F)cn4)C3)nc21` (stereo partly drawn) [Ex-74, 2-{cis-3-[5-(1-amino-2,2-difluoroethyl)pyridin-2-yl]cyclobutyl}-7-methoxy[1,2,4]triazolo[1,5-c]quinazolin-5-amine], the IC50 is 4 nM.

With `COc1cccc2c1nc(N)n1nc([C@H]3C[C@H](c4ccc([C@H](N)C(F)(F)F)cn4)C3)nc21` [Ex-77, 2-(trans-3-{5-[(1S)-1-amino-2,2,2-trifluoroethyl]pyridin-2-yl}cyclobutyl)-7-methoxy[1,2,4]triazolo[1,5-c]quinazolin-5-amine], the IC50 was found to be 1.3 nM.

The molecule `COc1cccc2c1nc(N)n1nc([C@H]3C[C@@H](c4ccc([C@H](N)C(F)(F)F)cn4)C3)nc21` [Ex-78, 2-(cis-3-{5-[(1S)-1-amino-2,2,2-trifluoroethyl]pyridin-2-yl}cyclobutyl)-7-methoxy[1,2,4]triazolo[1,5-c]quinazolin-5-amine] had an IC50 of 1.9 nM.

As to `COc1cccc2c1nc(N)n1nc([C@H]3C[C@H](c4ccc(C(N)C(F)(F)F)cc4)C3)nc21` (stereo partly drawn) [Ex-79, 2-{trans-3-[4-(1-amino-2,2,2-trifluoroethyl)phenyl]cyclobutyl}-7-methoxy[1,2,4]triazolo[1,5-c]quinazolin-5-amine], the IC50 came out at 2.7 nM.

On to `COc1cccc2c1nc(N)n1nc([C@H]3C[C@@H](c4cc(C)c(C(C)(C)N)cn4)C3)nc21` [Ex-80, 2-{cis-3-[5-(2-aminopropan-2-yl)-4-methylpyridin-2-yl]cyclobutyl}-7-methoxy[1,2,4]triazolo[1,5-c]quinazolin-5-amine], for which the IC50 came to 4.5 nM.

The molecule `COc1cccc2c1nc(N)n1nc([C@H]3C[C@H](c4cc(C)c(C(C)(C)N)cn4)C3)nc21` [Ex-81, 2-{trans-3-[5-(2-aminopropan-2-yl)-4-methylpyridin-2-yl]cyclobutyl}-7-methoxy[1,2,4]triazolo[1,5-c]quinazolin-5-amine] returned an IC50 of 4.8 nM.

As to `COc1cccc2c1nc(N)n1nc([C@H]3C[C@@H](c4ncc(C(C)(C)N)cc4F)C3)nc21` [Ex-86, 2-{cis-3-[5-(2-aminopropan-2-yl)-3-fluoropyridin-2-yl]cyclobutyl}-7-methoxy[1,2,4]triazolo[1,5-c]quinazolin-5-amine], the IC50 turned out to be 12.7 nM.

For `COc1cccc2c1nc(N)n1nc([C@H]3C[C@@H](c4ncc(C(C)(C)N)nc4C)C3)nc21` [Ex-89, 2-((1s,3s)-3-(5-(2-aminopropan-2-yl)-3-methylpyrazin-2-yl)cyclobutyl)-7-methoxy-[1,2,4]triazolo[1,5-c]quinazolin-5-amine], the IC50 was found to be 27.7 nM.

For `COc1cccc2c1nc(N)n1nc([C@H]3C[C@@H](c4ccc(C(C)(N)C(F)F)nc4)C3)nc21` (stereo partly drawn) [Ex-91, 2-{(1s,3s)-3-[6-(2-amino-1,1-difluoropropan-2-yl)pyridin-3-yl]cyclobutyl}-7-methoxy[1,2,4]triazolo[1,5-c]quinazolin-5-amine], the IC50 is 1.1 nM.

`COc1cccc2c1nc(N)n1nc([C@H]3C[C@H](c4ccc(C(C)(N)C(F)F)nc4)C3)nc21` (stereo partly drawn) [Ex-92, 2-{(1r,3r)-3-[6-(2-amino-1,1-difluoropropan-2-yl)pyridin-3-yl]cyclobutyl}-7-methoxy[1,2,4]triazolo[1,5-c]quinazolin-5-amine]: the IC50 is 14.1 nM.

Take `COc1cccc2c1nc(N)n1nc([C@H]3C[C@@H](c4ccc([C@@H](N)C(F)(F)F)nc4)C3)nc21` [Ex-95, 2-[(1s,3s)-3-{6-[(1R)-1-amino-2,2,2-trifluoroethyl]pyridin-3-yl}cyclobutyl]-7-methoxy[1,2,4]triazolo[1,5-c]quinazolin-5-amine]: the IC50 came out at 2.9 nM.
